Earlier results, collected in patent US20070083941A1, “Rat TRPM7 polynucleotide and encoded protein” (Wyeth, priority 2005, published 2007).

Target: TRPM7 (Homo sapiens, UniProt Q96QT4)
Conditions: high concentrations of intracellular MgATP and Mg^2+; basal activity of TRPM7; read-out: IC50 of inhibition of TRPM7

TRPM7, sequence (Q96QT4 whole entry, species assumed): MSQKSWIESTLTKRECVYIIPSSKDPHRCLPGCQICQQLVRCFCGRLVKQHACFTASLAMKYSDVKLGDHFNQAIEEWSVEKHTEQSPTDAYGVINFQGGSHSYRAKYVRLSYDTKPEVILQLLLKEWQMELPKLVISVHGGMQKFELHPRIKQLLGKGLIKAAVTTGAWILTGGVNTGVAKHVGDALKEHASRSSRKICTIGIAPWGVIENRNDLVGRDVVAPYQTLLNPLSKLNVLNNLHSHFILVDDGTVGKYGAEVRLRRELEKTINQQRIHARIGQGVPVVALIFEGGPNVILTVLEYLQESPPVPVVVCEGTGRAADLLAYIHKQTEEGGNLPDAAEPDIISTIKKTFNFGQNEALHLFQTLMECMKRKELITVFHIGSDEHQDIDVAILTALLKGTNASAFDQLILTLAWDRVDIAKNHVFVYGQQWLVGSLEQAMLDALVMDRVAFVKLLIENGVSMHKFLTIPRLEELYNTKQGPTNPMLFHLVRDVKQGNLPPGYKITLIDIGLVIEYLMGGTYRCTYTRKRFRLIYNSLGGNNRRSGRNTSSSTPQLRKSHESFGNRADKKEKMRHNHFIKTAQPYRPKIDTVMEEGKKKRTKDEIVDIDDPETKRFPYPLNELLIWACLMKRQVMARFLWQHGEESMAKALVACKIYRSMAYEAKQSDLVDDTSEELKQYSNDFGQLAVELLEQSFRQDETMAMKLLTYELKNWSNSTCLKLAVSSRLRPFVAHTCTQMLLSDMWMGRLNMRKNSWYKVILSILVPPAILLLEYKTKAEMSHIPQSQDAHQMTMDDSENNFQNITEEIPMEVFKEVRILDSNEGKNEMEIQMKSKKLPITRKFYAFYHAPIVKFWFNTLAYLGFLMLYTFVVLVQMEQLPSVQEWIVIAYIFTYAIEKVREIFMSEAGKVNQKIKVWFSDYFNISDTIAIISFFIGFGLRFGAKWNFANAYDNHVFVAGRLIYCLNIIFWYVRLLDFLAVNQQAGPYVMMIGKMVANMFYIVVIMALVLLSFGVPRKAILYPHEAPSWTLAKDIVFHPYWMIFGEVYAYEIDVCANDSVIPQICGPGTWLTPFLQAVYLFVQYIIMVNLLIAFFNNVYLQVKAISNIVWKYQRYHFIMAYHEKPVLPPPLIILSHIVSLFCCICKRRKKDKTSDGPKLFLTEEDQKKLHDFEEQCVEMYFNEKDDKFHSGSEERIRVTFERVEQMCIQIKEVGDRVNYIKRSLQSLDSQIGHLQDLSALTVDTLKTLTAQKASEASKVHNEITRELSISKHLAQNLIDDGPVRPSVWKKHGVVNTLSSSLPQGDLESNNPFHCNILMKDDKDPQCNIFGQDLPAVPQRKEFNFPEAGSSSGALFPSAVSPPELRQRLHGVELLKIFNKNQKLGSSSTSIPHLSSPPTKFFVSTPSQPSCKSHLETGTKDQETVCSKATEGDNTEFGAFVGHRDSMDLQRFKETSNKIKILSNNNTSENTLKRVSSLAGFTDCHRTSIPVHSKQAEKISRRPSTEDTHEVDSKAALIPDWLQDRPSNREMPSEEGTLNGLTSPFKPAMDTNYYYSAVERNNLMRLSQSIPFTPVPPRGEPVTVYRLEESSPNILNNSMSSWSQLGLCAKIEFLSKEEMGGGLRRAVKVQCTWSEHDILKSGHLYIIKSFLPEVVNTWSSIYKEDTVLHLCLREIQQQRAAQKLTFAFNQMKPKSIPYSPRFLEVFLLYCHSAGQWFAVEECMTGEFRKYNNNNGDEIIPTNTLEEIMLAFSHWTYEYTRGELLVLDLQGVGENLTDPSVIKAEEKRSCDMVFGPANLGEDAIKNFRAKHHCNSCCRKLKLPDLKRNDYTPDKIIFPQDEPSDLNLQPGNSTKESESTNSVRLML

Compound | IC50 [µM]
[Mg+2] [Mg^2+] | ~600
Nc1ncnc2c1ncn2[C@@H]1O[C@H](COP(=O)(O)OP(=O)(O)OP(=O)(O)O)[C@@H](O)[C@H]1O [MgATP] | ~600
